Bridge positions count the residues as written; N and C are the ends. Square brackets hold non-standard residues; d marks the D form. Ends that are not written are not given here. d(aIle) = CC[C@H](C)[C@@H](N)C(=O)O; dNMeF = CN[C@H](Cc1ccccc1)C(=O)O
What was measured:
[1] = 2D 15N1H ssNMR of bound teixobactin, mDAP-Lipid II vs Lys-Lipid II; assay type: binding; details: DOPC liposomes
Description: (§1) 1D, 2D, and 3D ^1H-detected experiments were performed at 60 kHz MAS frequency using magnetic fields of 16.4, 18.8, and 22.2 T (700, 800, and 950 MHz ^1H-frequency) at temperatures of 305 K. All ^1H-detected experiments were dipolar-based. PISSARRO low-power decoupling[47] was used during detection periods. 2D ^13C^13C spin diffusion experiments were performed with PARISxy[48] recoupling at 950 MHz and 15.5, 17, or 18 kHz MAS frequency at 270 K temperature using mixing times of 25–1000 ms. SPINAL64[49] was used in detection periods. The 2D scalar ^13C^13C TOBSY[50] experiment was acquired at 950 MHz with 8 kHz MAS at 295 K temperature with 6 ms ^13C–^13C magnetization transfer time. Chemical shift assignments were performed using standard ^1H-detected 3D CANH and CONH experiments[36],[51] in combination with 2D ^13C^13C PARISxy[48] experiments with different magnetization transfer times (see Supplementary Tables 1 and 2). DNP-enhanced 2D ^13C^13C spin diffusion (20 ms mixing time) ssNMR experiments[52] were carried out using a 263 GHz microwave frequency, 400 MHz ^1H frequency setup (Bruker Biospin) at 100 K temperature and 8.5 kHz MAS.
Lipid I or II-doped multi-laminar vesicle preparations: DOPC or DOPG lipids were mixed with Lipid I or II in 1:1 MeOH:CHCl3 at the final Lipid I or II molar ratio (0–4 mol%/mol). […]

[2] = Isothermal titration calorimetry: LUVs containing Lys-Lipid II titrated into [R4L10]-teixobactin; assay type: binding; details: neutral DOPC membranes, LUVs 2% (mol/mol) Lys-Lipid II, citrate phosphate buffer pH ~6, 37 °C, 65 μM peptide in cell; read-out: equilibrium dissociation constant Kd
Description: Preparation of liposomes: For ITC measurements large unilamellar vesicles (LUVs) containing Lys-Lipid II were prepared by incorporating 2% (mol/mol) of Lys-Lipid II in DOPC from the stock solution. The lipids were dried by nitrogen stream and hydrated with 10 mM HEPES, 150 mM NaCl, pH 7.5 buffer to a lipid-phosphate concentration of ~20 mM. LUVs were obtained after 10 rounds of extrusion through 200 nm membrane filters (Whatman Nuclepore, Track-Etch Membranes). The liposomes were dialysed to citrate phosphate buffer (100 mM NaCl, 50 mM citric acid, 100 mM Na2HPO4, pH ~6). Anionic LUVs were prepared by mixing 25% (mol/mol) DOPG and 75% (mol/mol) DOPC and then incorporating 2% (mol/mol) Lys-Lipid II. All other steps were the same as for zwitterionic LUVs.
ITC was performed with the Low Volume NanoITC (Waters LLC, New Castle, DE, USA) to determine interaction between LUVs and [R4L10]-teixobactin. [R4L10]-teixobactin was diluted in a citrate phosphate buffer (100 mM NaCl, 50 mM citric acid, 100 mM Na2HPO4, pH ~6) to a final concentration of 65 μM. Samples were degassed before use. The chamber was filled with 164 μL of [R4L10]-teixobactin, and the LUVs were titrated into the chamber at a rate of 1.96 μL/300 s with a stirring rate of 300 rpm. Experiments were performed at 37 °C and analysed using the Nano Analyse Software (Waters LLC). […]

[3] = ssNMR 15N T1rho relaxation (dynamics of bound teixobactin), Lys-Lipid I; details: bound to Lys-Lipid I in DOPC (Lys-LI PC), 950 MHz, 60 kHz MAS
Description: Relaxation studies: ^1H-detected ^15N T1rho relaxation experiments were carried out at 950 and 700 MHz magnetic field, respectively, using 60 kHz MAS[51]. The ^15N transverse magnetization decay was probed with a ^15N spinlock field of 17.5 kHz. For the bulk, we measured the intensity of the most intense signal at ~8.80 ^1H ppm. T1rho trajectories were fit to single exponentials.
Lipid I or II-doped multi-laminar vesicle preparations: DOPC or DOPG lipids were mixed with Lipid I or II in 1:1 MeOH:CHCl3 at the final Lipid I or II molar ratio (0–4 mol%/mol). The mixtures were dried and the lipid films were hydrated by vortexing with 2 mL of a teixobactin solution in 40 mM phosphate, 25 mM NaCl, pH 7.0.
SSNMR samples: MLVs were collected by centrifugation (20,000×g) and loaded into ssNMR rotors. For 3.2 mm rotors, we used 800 nmol of antibiotic with unlabelled Lipid II or I, while we used 400 nmol with labelled Lipid II. For 1.3 mm rotors, samples contained 200 nmol of antibiotic for unlabelled Lipid II or I, while we used 100 nmol for labelled Lipid II. For all ssNMR samples, we used 4 mol%/mol Lipid II or I in the MLVs.

[4] = 2D NH and DNP ssNMR of teixobactin-Lipid II complex in native cellular membranes; assay type: binding, Micrococcus flavus DSM 1790
Description: as §1
Native membrane vesicle preparations were obtained from Micrococcus flavus DSM 1790[13],[16]. The amount of antibiotic was ~7.5 and 30 nmol for the 1.3 and 3.2 mm rotors, respectively. […]

[5] = Fluorescence microscopy of GUVs doped with NBD-labelled Lipid II (Lipid II clustering); details: 1 μM peptide, 4 h
Description: GUVs were prepared using the electroformation method. The GUV cell is a self-assembled system which consists of a 5 mm-thick Teflon plate which is aligned with two titanium electrodes in a closed Teflon chamber. 1.5 μL of 0.5 mM DOPC doped with NBD-labelled Lipid II (0.1 mol%) were brushed on the electrodes. Next, the chamber was filled with 350 μL 0.1 M sucrose solution; the electrodes dipped in and then connected to a power supply which generated a sine wave of voltage 2.5 V at a frequency of 10 Hz for 90 min. Each microscopy slide (μ-slide 8 well, Ibidi) was covered with 350 μL BSA solution (1 mg/mL). To detach the GUVs from the electrodes the power supply was changed to square wave of voltage 2 V at a frequency of 2 Hz for 15 min. The slides were immersed in 300 μL 0.1 mM glucose solution to which 80 μL of GUVs were added. These were incubated for 4 h with 1 μM [R4L10]-teixobactin and observed by confocal microscopy. Anionic GUVs were prepared using a homemade electroformation setup with ITO coverslips (18 × 18 mm, 15–30 Ω, SPI supplies). On both slips, 3 μL of a chloroform–methanol (1:1, vol/vol) solution containing 1 mM of a 3:1 mixture of DOPC:DOPG (mol/mol) and 0.1 mol% NBD-labelled Lipid II was deposited and dried in a vacuum desiccator. With these slips, the electroformation chamber was assembled and filled with 0.1 M sucrose solution. The GUV cell was connected to the power supply and an alternating current applied (1 V, 10 Hz). GUV formation was carried out overnight.
Microscopy: GUVs were imaged using Zeiss LSM 880 with ×63/1.2NA glycerol objective lens. The NBD label appeared green upon excitation by the 488 nm laser. The emission range for detection was 530–545 nm (λem peak = 539 nm). The brightfield images were used for detection and location of the GUVs without a fluorescent signal and also as a control to observe their shape.

## D-Arg4-Leu10-teixobactin ([dNMeF]IS[dR][d(aIle)]IS[dT]ALI; ester 8-C; also: 13C,15N labels at Ile2, Ser3, Ile6, Ser7 and one Ala (residue not fully stated)) [[R4L10]-teixobactin]
[1]
  ssNMR spectra bound to Lys-Lipid II vs mDAP-Lipid II: gave the same ssNMR spectra
[2]
  Kd: 0.17 µM
[3]
  Bulk 15N R1rho: 21.70 s⁻¹
  Bulk 15N T1rho: 46.09 ms
[4]; DNP-ssNMR 2D 13C13C, M. flavus membranes vs DOPC
  oligomerization and complex structure in natural membranes: conserved in natural membranes
[4]; M. flavus membranes, 7.5 nmol of drug
  cellular 2D NH spectrum vs anionic membranes: strongly resembled the one in anionic membranes
[5]; DOPC GUVs, 0.1 mol% NBD-Lipid II
  Lipid II segregation into clusters on GUVs: Lipid II segregated into μm-sized clusters
[5]; DOPC GUVs, brightfield images, cluster sites show slight membrane deformations
  vesicle integrity and morphology after incubation: morphology is maintained
[5]; anionic GUVs 1:3 DOPG:DOPC (mol/mol), 0.1 mol% NBD-Lipid II
  Clustering of Lipid II in anionic membranes: clearly visible
